Entries after “also recorded” stand apart in the source; their conditions may differ.

Results on three substances are retold here after patent US20180265915A1, “TRANSCRIPTION FACTOR DECOYS” (priority 2008, published 2018).

In data set [1] the test system is E. coli. As to the kind of experiment: FabB decoy growth assay with cerulenin in 96-well plate. It is filed as cell-based, Escherichia coli. As to conditions: Rich media supplemented with 1 μg/ml cerulenin. On the procedure: The decoy was prepared as described in Example 1.1 and used at various concentrations to transfect a well of a 96-well plate containing 200 μl of Rich media (10 g Tryptone, 5 g NaCl, 1 g Yeast extract per litre and supplemented with 0.2% glucose and 0.4% acetate, final concentrations) supplemented with 1 μg/ml cerulenin (Sigma). The plates were incubated at 37° C. with shaking and absorbance readings (at 595 nM) were taken using a plate reader. All data points were performed in triplicate.

Data set [2] has as its system E. coli. In words: FabB TFD growth assay with cerulenin in LB, polymixin co-transfectant. It is filed as cell-based, Escherichia coli. On the procedure:
For example, a FabB decoy which targets the regulation of genes essential for fatty acid synthesis may be tested against suitable strain, e.g. E. coli grown in e.g. Luria-Bertani LB media (1% [w/v] Bacto-tryptone, 0.5% [w/v] Yeast extract, 1% [w/v] NaCl) in the presence of an antibiotic which acts on the process of fatty acid synthesis, e.g. Cerulenin.
The effect of TFDs on the growth of E. coli bacterial cultures was measured as described in Example 4.1 with a few modifications: the media used was LB; the co-transfectant used was 40 nM polymixin, rather than gramicidin; the media was also supplemented with 10 μg/ml Cerulenin (CER). CER is an antibiotic that acts on fatty acid synthesis.

In data set [3] the test system is S. aureus. As to the kind of experiment: Growth of S. aureus transfected by electroporation under conditions of stress. Particulars: BHI or LB media with 30 mM KOH, vs mock-electroporation or unrelated sequence. It is filed as cell-based, Staphylococcus aureus. On the procedure: For example, stress response can be induced in a suitable strain e.g. S. aureus by growing in, e.g. LB media under conditions of stress, e.g. alkali conditions. For example LB media containing KOH, e.g. at 30 mM may be used. Untreated bacteria grow well in this media, due to the induction of the stress response by the alkali conditions, whereas those treated with the SA_sigB decoy, targeting the regulation of sigB which is a major part of the regulatory response to stress, grow poorly.
Decoy polynucleotides were transfected into S. aureus by electroporation. Bacterial cells were prepared by standard methods. Briefy, cells were grown to early exponential phase in LB media at 37° C. as defined as reaching an Absorbance of 0.3 at […]. The cells were chilled to 4° C. and harvested by low speed centrifugation and washed three times in a similar volume of sterile, ice-cold 10% (v/v) glycerol. Finally the cells were resuspended in a tenth of their original volume in 10% glycerol. […] 200 μl of cells were aliquoted into wells of a 96 well plate that was incubated at 37° C. with moderate shaking, growth was monitored by measuring absorbance.

The subject of data set [4] is S. aureus. In words: Growth studies in 96-well plates (DOTAP/Gramicidin transfection). It is filed as cell-based, Staphylococcus aureus. As to conditions: 10 nM TFD, DOTAP, 60 nM Gramicidin. As to the method: Cholesterol/Cy5-labeled decoy polynucleotides were prepared as in section 5.1. Typically 1 Lg of TFD was then complexed with 0.3 μl of the liposomal transfection reagent DOTAP (Roche) and incubated at room temperature for 10 min. The assays to determine their effect on growth of bacterial cells were performed using 96 well plates, each well containing 200 μl of broth consisting of BHI media (from Becton Dickinson), which is not iron-limited, supplemented with 60 nM Gramicidin (from Sigma Corporation. Cat# G5002) or iron-depleted media (NRPMI) similarly supplemented with Gramicidin. The method for iron-depletion is described in full elsewhere (Science (2004) 305:1626-1628). 1 μl of various concentrations of a Cholesterol/Cy5-labeled decoy complexed with TFD were added to each well and their effect on bacterial growth of S. aureus monitored by measuring absorbance of the broth at intervals during incubation. The plates were incubated at 37° C. with shaking and absorbance readings (at 450 nM) were taken using a plate reader. Several decoys were tested: Sig, fhu and SsaA.

In another data set the test system is M. smegmatis. In words: WhiB7 decoy antibiotic sensitisation, growth in shake flasks. It counts as cell-based, Mycobacterium smegmatis. As to conditions: 100 nM TFD; sub-inhibitory isoniazid (IZ) or rifampicin (RF); 9H11 + 10% ODAC, 37° C. On the procedure: A decoy polynucleotide containing the WhiB7 decoy sequence was prepared as described in Example 1.1 and various concentrations were used to transfect M. smegmatis grown in 20 ml of broth (in 200 ml shake flasks containing a wire baffle). The media used was 9H11 (Becton Dickinson) supplemented with 10% ODAC (Becton Dickinson) and sub-inhibitory concentrations of the antibiotics isoniazid (IZ) or rifampicin (RF). The flasks were incubated at 37° C. with shaking and at various intervals samples were withdrawn and their absorbance measured (to monitor cell growth). Flasks were either treated with 100 nM of the WhiB7 TFD (+) or treated with the negative control TFD (−).

With “FabB TFD: decoy containing the binding site for the FadR regulator, SEQ ID NO: 6 (DNA TTTATTCCGAACTGATCGGACTTGTTCAGCGTACACGTGTTAGCTATCCTGCGTGCTTCA; transcription factor decoy, method of preparation not given here for this one, further chemistry not given here)”, the “growth of E. coli in broth (absorbance at 595 nM)” value in the data set with E. coli [1] is listed as “caused the cells to hardly grow at all”. In the data set on E. coli [2] (10 nM TFD, LB, 40 nM polymixin, 10 μg/ml Cerulenin), the “sensitivity of E. coli to the action of cerulenin” value was “sensitises the bacteria to antibiotics (cerulenin); also recorded: rendered the bacteria sensitive to the action of cerulenin”. Moreover, in the data set on E. coli [2] (FabB TFD plus cerulenin), the “effect on cells at 20 ug/ml cerulenin” value is “the cells are being killed by the synergenistic action”. The “growth of E. coli treated with the decoy versus untreated” value with E. coli [2] (LB media, Cerulenin 10 μg/ml) was “grow markedly more slowly and to lower final density”.

As to “SsaA TFD: contains the binding site for the two-component regulator WalR, SEQ ID NO: 8 (DNA ATTACAAATTTGTAACAGACTTATTTTA; transcription factor decoy, made by PCR or oligonucleotide ligation, further chemistry not given here; listed as Staphylococcus aureus)”, the “growth of S. aureus under conditions of stress” value in the data set with S. aureus [3] was “capable of slowing the growth”. Further, the “effect on bacterial growth in BHI medium (non-iron limiting)” value with S. aureus [4] is recorded as “measurable delay in bacterial growth”. For the same substance, in the data set with S. aureus [4] (NRPMI), the “effect on bacterial growth in iron-limited media” value was “no effect on bacterial growth”.

As to “WhiB7 TFD: decoy with WhiB7 binding site, SEQ ID NO: 5, prepared by PCR with cholesterol/Cy5 primers (DNA TGGCCACGGATCCGGGTGACTGCGGGTCCGTGGCCT; PCR-made decoy including vector flanks, 5' cholesterol and Cy5 primer ends, further chemistry not given here)”, in the data set with M. smegmatis, the “sensitivity of cells to the antibiotics tested (growth by absorbance)” value is on record as “rendered sensitive to both the antibiotics tested”.
